Measurements: ChEMBL document CHEMBL1201862, “PubChem BioAssay data set” (2004)
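Where inhibition never reached the appropriate level, the endpoint shown equals the highest concentration tested. Otherwise, values were interpolated linearly from a five-concentration, 48-hour dose response in 96-well plates. Abbreviation: GI50, concentration required for 50% inhibition of growth.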 The source made the active and inactive calls. Cut-off read from the data, not from the text of the source: active = GI50 up to about 1.1 µM and inactive = higher.

Assays:
Assay in all cases: inhibition of tumour cell growth, NCI panel, 48 h
[1] = system: A498
[2] = system: CAKI-1
[3] = system: CCRF-CEM
[4] = system: COLO 205
[5] = system: HL-60
[6] = system: LOX IMVI
[7] = system: M14
[8] = system: NCI-H23
[9] = system: NCI-H522
[10] = system: RXF 393
[11] = system: SF-295
[12] = system: SF-539
[13] = system: SK-MEL-28
[14] = system: SK-MEL-2
[15] = system: SNB-19
[16] = system: TK-10
[17] = system: U-251
[18] = system: UO-31
[19] = system: Malme-3M
[20] = system: OVCAR-3

Compound	GI50 [1]	GI50 [2]	GI50 [3]	GI50 [4]	GI50 [5]	GI50 [6]	GI50 [7]	GI50 [8]	GI50 [9]	GI50 [10]	GI50 [11]	GI50 [12]	GI50 [13]	GI50 [14]	GI50 [15]	GI50 [16]	GI50 [17]	GI50 [18]	GI50 [19]	GI50 [20]
O=C(Nc1cccc(O)c1)C(=O)C(C(=O)c1ccccc1F)C1OC(=O)c2ccccc21 (configuration not stated)	66.5 µM (inactive)	32.9 µM (inactive)	18.3 µM (inactive)	23.2 µM (inactive)	28.7 µM (inactive)	22.9 µM (inactive)	23.5 µM (inactive)	27 µM (inactive)	17.3 µM (inactive)	18.5 µM (inactive)	52.6 µM (inactive)	15.2 µM (inactive)	31 µM (inactive)	20.9 µM (inactive)	19.9 µM (inactive)	58.9 µM (inactive)	11.6 µM (inactive)	32.1 µM (inactive)		
CNC1=C(C)C(=O)C2=C(C1=O)C(COC(N)=O)C1(OC)C3NC3CN21 (configuration not stated)	0.632 µM (active)	0.0653 µM (active)	4.19 µM (inactive)	0.187 µM (active)	2.02 µM (inactive)	0.152 µM (active)	0.22 µM (active)	0.105 µM (active)	0.427 µM (active)		0.0853 µM (active)	0.183 µM (active)	1.29 µM (inactive)	1.15 µM (inactive)	0.268 µM (active)	3.1 µM (inactive)	0.883 µM (active)	2.19 µM (inactive)	0.571 µM (active)	3.36 µM (inactive)
C/C(=N\NS(=O)(=O)c1ccccc1)c1ccccc1		> 100 µM (inactive)	> 100 µM (inactive)	> 100 µM (inactive)	> 100 µM (inactive)	> 100 µM (inactive)		> 100 µM (inactive)	> 100 µM (inactive)	> 100 µM (inactive)	> 100 µM (inactive)	> 100 µM (inactive)	> 100 µM (inactive)	> 100 µM (inactive)	> 100 µM (inactive)		> 100 µM (inactive)	> 100 µM (inactive)	> 100 µM (inactive)	> 100 µM (inactive)
Oc1ccc2ccccc2c1/N=N/c1cccc2ccccc12	> 100 µM (inactive)	> 100 µM (inactive)	> 100 µM (inactive)	> 100 µM (inactive)	> 100 µM (inactive)		> 100 µM (inactive)	> 100 µM (inactive)	52.4 µM (inactive)	65.3 µM (inactive)	> 100 µM (inactive)	24.3 µM (inactive)		> 100 µM (inactive)	47.6 µM (inactive)	> 100 µM (inactive)	50.6 µM (inactive)	> 100 µM (inactive)	91.6 µM (inactive)	> 100 µM (inactive)
O=C1Sc2ccccc2/C1=N/Nc1ccccc1[N+](=O)[O-]	> 100 µM (inactive)	77.3 µM (inactive)	> 100 µM (inactive)	> 100 µM (inactive)	> 100 µM (inactive)	> 100 µM (inactive)	> 100 µM (inactive)	> 100 µM (inactive)	> 100 µM (inactive)		> 100 µM (inactive)	69.5 µM (inactive)	> 100 µM (inactive)	> 100 µM (inactive)	> 100 µM (inactive)	> 100 µM (inactive)	> 100 µM (inactive)	> 100 µM (inactive)	94.8 µM (inactive)	> 100 µM (inactive)
O=C1C(=O)c2ccccc2C=C1[N+](=O)[O-]	> 100 µM (inactive)	87.9 µM (inactive)	27.9 µM (inactive)	> 100 µM (inactive)	22.7 µM (inactive)	25.8 µM (inactive)	71.1 µM (inactive)	34.2 µM (inactive)	34.9 µM (inactive)	24.4 µM (inactive)	97.3 µM (inactive)	43.1 µM (inactive)	> 100 µM (inactive)	28.2 µM (inactive)	> 100 µM (inactive)	> 100 µM (inactive)	40.1 µM (inactive)	> 100 µM (inactive)		23.4 µM (inactive)
O=C1CNc2cc(N3CCCCC3)ccc2N1			99.5 µM (inactive)		> 100 µM (inactive)		66.1 µM (inactive)	> 100 µM (inactive)	> 100 µM (inactive)		> 100 µM (inactive)	> 100 µM (inactive)	> 100 µM (inactive)	> 100 µM (inactive)	> 100 µM (inactive)	> 100 µM (inactive)	> 100 µM (inactive)	> 100 µM (inactive)	> 100 µM (inactive)	> 100 µM (inactive)
C=C(C)C(=O)O[C@H]1CC2=C[C@@H](C[C@@]3(C)O[C@@H]3[C@H]3OC(=O)C(=C)[C@@H]31)OC2=O [ELEPHANTOPIN]	5.13 µM (inactive)	1.86 µM (inactive)		0.885 µM (active)	0.486 µM (active)	0.31 µM (active)		1.87 µM (inactive)	0.593 µM (active)	0.369 µM (active)	5.57 µM (inactive)	3.57 µM (inactive)	1.71 µM (inactive)	4.34 µM (inactive)	13.3 µM (inactive)		6.49 µM (inactive)	6.07 µM (inactive)	2.12 µM (inactive)	1.2 µM (inactive)
